The values below come from ChEMBL document CHEMBL5465560, “Selectivity Literature for EUbOPEN Chemogenomic Library” (2024).

The target of test [1] is Receptor-type tyrosine-protein kinase FLT3 (Homo sapiens) (UniProt P36888). Kind of test: Selectivity interaction (Upstate Kinase Profiler service (Millipore)) EUB0000056c FLT3. As to conditions: at 1 µM.
In test [2] the target is Serine/threonine-protein kinase PAK 4 (Homo sapiens, UniProt O96013). The settings on record: at 10 µM.
The test system of test [3] is Tyrosine-protein kinase ABL1 (Homo sapiens), P00519 [F317L]. The settings on record: at 10 µM.
Test [4] deals with Serine/threonine-protein kinase Nek7 (Homo sapiens) (UniProt Q8TDX7). Description: Selectivity interaction (Ambit KINOMEscan and KiNATiv profiling in Jurkat cells) EUB0000090b NEK7. The test is classed as cell-based. As to conditions: at 1 µM.
The target in test [5] is T1, Serine/threonine-protein kinase Chk1 (Homo sapiens) (UniProt O14757).
T1 sequence (whole entry): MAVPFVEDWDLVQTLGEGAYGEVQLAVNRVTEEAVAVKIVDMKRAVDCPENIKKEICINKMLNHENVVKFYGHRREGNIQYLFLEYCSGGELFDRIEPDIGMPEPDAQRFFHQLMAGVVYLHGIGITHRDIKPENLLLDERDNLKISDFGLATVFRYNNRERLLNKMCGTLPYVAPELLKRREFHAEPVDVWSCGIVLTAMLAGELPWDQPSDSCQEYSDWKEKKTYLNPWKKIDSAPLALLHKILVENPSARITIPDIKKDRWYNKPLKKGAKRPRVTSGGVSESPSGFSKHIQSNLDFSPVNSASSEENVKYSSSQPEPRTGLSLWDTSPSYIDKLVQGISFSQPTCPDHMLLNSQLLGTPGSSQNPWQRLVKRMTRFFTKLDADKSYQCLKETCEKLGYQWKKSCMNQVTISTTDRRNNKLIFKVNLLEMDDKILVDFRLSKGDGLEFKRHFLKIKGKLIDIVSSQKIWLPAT
Kind of test: Selectivity interaction (Ambit KINOMEscan and KiNATiv profiling in Jurkat cells) EUB0000090b CHEK1. The test is classed as cell-based. As to conditions: at 1 µM.

In test [6] the target is Cyclin-dependent kinase 14 (Homo sapiens) (UniProt O94921). Description: Selectivity interaction (KinomeScan (DiscoverX)) EUB0001079a CDK14. The settings on record: at 1 µM.
Test [7] has as its target Serine/threonine-protein kinase VRK2 (Homo sapiens) (UniProt Q86Y07). Kind of test: Selectivity interaction (KinomeScan (DiscoverX)) EUB0000695a VRK2. The settings on record: at 100 nM.
The target of a further test is T2, Peregrin (Homo sapiens) (UniProt P55201).
T2 sequence (whole entry): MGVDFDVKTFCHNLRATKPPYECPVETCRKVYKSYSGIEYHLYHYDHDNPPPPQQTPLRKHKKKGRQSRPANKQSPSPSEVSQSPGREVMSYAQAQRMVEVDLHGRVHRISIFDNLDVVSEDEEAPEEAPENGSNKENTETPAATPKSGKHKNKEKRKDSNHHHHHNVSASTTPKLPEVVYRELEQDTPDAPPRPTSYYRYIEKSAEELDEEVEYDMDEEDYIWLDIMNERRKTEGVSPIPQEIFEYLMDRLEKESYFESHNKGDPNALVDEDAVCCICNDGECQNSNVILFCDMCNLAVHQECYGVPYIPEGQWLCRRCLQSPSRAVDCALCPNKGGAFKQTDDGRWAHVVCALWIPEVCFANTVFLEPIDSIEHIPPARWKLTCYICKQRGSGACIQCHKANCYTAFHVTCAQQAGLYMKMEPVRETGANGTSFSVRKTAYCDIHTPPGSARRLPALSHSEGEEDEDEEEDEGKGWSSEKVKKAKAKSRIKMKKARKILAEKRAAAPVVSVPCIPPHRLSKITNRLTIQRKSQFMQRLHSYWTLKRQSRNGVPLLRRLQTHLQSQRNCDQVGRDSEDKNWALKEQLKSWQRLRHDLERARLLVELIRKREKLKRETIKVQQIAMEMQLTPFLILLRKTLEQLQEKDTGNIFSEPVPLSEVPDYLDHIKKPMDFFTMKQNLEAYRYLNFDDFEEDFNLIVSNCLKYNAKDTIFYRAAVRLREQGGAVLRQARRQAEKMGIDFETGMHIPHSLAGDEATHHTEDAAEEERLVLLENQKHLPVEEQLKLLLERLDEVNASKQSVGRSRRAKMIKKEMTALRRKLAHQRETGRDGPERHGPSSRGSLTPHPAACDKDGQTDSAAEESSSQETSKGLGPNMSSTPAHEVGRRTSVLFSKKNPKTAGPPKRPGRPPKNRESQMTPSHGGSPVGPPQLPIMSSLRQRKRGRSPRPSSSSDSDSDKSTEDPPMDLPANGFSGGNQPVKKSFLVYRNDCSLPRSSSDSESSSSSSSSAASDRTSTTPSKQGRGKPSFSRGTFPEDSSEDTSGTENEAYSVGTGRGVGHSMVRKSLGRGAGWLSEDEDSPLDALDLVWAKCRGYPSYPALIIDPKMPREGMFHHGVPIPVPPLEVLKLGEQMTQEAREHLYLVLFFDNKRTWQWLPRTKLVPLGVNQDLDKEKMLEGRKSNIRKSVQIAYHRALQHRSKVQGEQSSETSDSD
Description: Selectivity interaction (Bromodomain panel (DSF asssay)) EUB0000270b BRPF1.

Test [8] has as its target RAC-beta serine/threonine-protein kinase (Homo sapiens) (UniProt P31751). Description: Selectivity interaction (KinomeScan (DiscoverX)) EUB0000045b AKT2.
In test [9] the target is Polycomb protein SUZ12 (Homo sapiens) (UniProt Q15022). Kind of test: Selectivity interaction (Methyltransferase screen (radiometric assays, panel of 8 PRMTs, 21 protein lysine methyltransferases, 3 DNA methyltransferases, and one RNA methyltransferase)) EUB0000272b SUZ12.
Test [10] has as its target RAC-alpha serine/threonine-protein kinase (Homo sapiens, UniProt P31749). Kind of test: Selectivity interaction (KinomeScan (DiscoverX)) EUB0000607a AKT1. The settings on record: at 10 µM.
The target of test [11] is Mitogen-activated protein kinase kinase kinase 9 (Homo sapiens) (UniProt P80192). Description: Selectivity interaction (SelectScreen profiling (Invitrogen)) EUB0000607a MAP3K9. As to conditions: at 2 µM.
Test [12] has as its target Serine/threonine-protein kinase Nek7 (Homo sapiens) (UniProt Q8TDX7). Kind of test: Selectivity interaction (ActivX KiNativ screen (kinase selectivity in THP-1 cell lysates)) EUB0000639a NEK7. The class given is subcellular. The settings on record: lysate, at 0.01 µM.
The target of another test is SRSF protein kinase 1 (Homo sapiens, UniProt Q96SB4). Description: Selectivity interaction (Kinase panel (DSF assay)) EUB0001559a SRPK1.
The target of test [13] is Ribosomal protein S6 kinase alpha-1 (Homo sapiens, UniProt Q15418). Kind of test: Selectivity interaction (Kinase panel (DSF assay)) EUB0001559a RPS6KA1. In general terms: Differential scanning fluorimetry follows unfolding on heating by fluorescence.
Test [14] concerns the target Ribosomal protein S6 kinase alpha-5 (Homo sapiens) (UniProt O75582). The settings on record: at 10 µM.
Test [15] has as its system Fibroblast growth factor receptor 3 (Homo sapiens), P22607 [G697C]. Kind of test: (§1) Selectivity interaction (KinomeScan (DiscoverX)) EUB0000595a FGFR3. The settings on record: at 10 µM.
Test [16] deals with Fibroblast growth factor receptor 3 (Homo sapiens, UniProt P22607). The description is as §1. The settings on record: at 10 µM.

Sequence of RAC-beta serine/threonine-protein kinase (Homo sapiens) (P31751 whole entry): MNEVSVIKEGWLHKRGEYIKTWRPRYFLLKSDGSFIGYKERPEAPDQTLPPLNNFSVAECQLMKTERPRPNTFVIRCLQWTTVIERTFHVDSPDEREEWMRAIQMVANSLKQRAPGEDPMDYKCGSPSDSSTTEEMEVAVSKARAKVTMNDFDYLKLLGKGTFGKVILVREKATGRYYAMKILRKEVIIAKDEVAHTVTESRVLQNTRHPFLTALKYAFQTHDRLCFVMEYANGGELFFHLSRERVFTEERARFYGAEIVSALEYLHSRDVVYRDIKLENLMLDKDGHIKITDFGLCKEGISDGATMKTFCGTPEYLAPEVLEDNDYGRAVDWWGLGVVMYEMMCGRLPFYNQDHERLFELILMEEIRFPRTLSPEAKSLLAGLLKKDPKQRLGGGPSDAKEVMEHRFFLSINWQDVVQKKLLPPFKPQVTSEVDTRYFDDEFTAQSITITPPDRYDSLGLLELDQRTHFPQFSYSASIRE
Sequence of Polycomb protein SUZ12 (Homo sapiens) (Q15022 whole entry): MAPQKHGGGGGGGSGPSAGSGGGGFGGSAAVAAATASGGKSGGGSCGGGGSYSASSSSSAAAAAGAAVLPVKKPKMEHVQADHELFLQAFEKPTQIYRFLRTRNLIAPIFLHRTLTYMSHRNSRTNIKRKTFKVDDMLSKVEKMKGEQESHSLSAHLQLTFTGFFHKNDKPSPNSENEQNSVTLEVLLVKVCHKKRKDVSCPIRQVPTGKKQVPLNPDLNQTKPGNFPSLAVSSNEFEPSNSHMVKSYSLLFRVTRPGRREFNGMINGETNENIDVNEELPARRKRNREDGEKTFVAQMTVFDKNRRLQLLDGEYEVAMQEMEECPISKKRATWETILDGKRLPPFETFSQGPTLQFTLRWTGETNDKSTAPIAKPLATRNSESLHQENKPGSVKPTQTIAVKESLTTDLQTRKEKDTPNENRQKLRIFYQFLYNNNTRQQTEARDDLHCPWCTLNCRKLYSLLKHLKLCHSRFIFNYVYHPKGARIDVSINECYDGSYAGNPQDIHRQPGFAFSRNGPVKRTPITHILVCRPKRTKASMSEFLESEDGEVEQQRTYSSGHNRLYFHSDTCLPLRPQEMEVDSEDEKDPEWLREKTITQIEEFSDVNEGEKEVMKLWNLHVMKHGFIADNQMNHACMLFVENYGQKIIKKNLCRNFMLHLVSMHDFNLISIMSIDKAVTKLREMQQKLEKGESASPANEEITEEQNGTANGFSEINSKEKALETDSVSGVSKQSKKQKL
Sequence of Serine/threonine-protein kinase Nek7 (Homo sapiens) (Q8TDX7 whole entry, looked up): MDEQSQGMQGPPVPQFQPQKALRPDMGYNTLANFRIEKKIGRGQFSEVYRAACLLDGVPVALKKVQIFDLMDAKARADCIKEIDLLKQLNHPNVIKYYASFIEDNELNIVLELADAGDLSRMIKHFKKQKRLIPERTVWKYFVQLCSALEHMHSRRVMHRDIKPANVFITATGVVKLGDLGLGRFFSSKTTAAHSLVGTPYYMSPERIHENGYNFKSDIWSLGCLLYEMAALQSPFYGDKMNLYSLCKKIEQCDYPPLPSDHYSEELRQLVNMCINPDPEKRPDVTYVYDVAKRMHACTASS
Sequence of SRSF protein kinase 1 (Q96SB4 whole entry): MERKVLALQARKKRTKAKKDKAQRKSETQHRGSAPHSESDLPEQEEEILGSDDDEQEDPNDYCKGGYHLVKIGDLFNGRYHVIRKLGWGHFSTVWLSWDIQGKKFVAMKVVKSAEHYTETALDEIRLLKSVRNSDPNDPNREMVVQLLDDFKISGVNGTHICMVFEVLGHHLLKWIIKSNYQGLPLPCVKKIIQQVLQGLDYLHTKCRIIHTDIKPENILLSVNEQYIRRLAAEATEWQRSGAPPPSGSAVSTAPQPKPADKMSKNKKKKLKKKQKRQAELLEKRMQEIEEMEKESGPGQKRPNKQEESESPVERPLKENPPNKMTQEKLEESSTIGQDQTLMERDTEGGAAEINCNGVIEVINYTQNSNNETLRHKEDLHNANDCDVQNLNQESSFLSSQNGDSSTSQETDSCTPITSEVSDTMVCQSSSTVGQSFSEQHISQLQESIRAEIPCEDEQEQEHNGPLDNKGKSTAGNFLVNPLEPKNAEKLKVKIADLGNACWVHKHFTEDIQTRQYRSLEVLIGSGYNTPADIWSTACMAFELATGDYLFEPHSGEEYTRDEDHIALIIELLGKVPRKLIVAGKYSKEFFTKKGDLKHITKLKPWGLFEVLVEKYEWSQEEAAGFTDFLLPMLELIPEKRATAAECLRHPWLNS
Sequence of RAC-alpha serine/threonine-protein kinase (P31749 whole entry): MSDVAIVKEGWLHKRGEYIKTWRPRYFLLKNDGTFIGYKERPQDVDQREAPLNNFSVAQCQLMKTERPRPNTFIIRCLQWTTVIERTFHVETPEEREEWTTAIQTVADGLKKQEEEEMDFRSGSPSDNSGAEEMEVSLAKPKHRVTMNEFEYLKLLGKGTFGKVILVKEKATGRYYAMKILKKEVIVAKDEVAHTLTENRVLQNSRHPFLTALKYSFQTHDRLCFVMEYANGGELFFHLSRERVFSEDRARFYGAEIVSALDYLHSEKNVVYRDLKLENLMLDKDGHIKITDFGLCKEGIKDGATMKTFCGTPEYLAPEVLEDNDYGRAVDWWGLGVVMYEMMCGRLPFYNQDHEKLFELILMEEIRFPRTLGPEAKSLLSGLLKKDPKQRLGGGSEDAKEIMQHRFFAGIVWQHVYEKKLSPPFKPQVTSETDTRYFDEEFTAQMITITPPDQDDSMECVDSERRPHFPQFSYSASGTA
Sequence of Mitogen-activated protein kinase kinase kinase 9 (Homo sapiens) (P80192 whole entry, looked up): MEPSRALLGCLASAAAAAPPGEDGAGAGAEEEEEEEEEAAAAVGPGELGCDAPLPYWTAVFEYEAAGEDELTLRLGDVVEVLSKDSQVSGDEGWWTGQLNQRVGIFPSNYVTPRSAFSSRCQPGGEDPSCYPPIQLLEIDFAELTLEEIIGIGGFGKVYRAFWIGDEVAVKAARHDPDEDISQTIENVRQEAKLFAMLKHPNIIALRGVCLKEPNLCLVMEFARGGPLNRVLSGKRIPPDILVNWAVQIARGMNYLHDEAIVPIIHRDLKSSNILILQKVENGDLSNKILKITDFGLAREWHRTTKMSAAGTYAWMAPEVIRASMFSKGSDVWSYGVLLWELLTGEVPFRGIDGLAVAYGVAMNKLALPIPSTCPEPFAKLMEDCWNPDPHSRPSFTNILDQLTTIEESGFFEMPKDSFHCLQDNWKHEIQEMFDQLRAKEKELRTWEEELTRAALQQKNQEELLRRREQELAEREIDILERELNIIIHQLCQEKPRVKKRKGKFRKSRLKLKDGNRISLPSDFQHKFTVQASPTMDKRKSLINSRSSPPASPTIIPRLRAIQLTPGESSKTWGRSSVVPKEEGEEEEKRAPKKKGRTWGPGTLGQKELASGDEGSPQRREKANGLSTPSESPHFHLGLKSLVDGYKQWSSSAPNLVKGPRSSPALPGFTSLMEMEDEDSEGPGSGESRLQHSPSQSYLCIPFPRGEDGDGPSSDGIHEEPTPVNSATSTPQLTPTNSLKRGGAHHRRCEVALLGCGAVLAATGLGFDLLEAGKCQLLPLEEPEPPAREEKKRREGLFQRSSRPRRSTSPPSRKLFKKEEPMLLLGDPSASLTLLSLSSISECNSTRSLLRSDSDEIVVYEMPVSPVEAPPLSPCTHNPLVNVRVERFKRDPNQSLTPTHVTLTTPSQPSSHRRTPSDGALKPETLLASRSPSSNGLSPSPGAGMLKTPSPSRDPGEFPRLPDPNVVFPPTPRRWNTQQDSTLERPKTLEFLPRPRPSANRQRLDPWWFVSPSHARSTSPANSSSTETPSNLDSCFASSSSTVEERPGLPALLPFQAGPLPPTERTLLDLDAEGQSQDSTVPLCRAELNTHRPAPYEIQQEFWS
Sequence of Fibroblast growth factor receptor 3 (Homo sapiens), P22607 [G697C] (P22607 whole entry G697C): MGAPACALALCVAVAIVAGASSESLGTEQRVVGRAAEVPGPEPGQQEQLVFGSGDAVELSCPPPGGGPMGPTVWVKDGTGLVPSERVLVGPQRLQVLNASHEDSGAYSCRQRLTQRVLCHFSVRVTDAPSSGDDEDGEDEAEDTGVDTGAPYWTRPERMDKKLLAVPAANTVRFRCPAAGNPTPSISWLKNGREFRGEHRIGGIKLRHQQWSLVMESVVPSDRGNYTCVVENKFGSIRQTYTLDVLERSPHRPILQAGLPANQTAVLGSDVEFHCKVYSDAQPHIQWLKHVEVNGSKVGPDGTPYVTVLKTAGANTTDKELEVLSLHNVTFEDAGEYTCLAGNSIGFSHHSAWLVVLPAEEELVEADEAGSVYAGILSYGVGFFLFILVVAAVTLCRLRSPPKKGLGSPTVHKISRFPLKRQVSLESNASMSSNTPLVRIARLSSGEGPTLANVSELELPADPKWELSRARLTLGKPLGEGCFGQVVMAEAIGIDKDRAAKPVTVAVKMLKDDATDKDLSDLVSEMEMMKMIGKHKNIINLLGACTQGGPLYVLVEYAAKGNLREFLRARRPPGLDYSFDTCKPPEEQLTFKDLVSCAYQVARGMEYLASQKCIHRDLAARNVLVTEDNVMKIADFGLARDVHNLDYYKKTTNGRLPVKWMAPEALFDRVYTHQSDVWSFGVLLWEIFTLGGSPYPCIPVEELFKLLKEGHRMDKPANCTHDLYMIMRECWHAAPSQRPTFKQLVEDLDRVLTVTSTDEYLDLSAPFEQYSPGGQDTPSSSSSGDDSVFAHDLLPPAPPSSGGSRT
Sequence of Cyclin-dependent kinase 14 (Homo sapiens) (O94921 whole entry): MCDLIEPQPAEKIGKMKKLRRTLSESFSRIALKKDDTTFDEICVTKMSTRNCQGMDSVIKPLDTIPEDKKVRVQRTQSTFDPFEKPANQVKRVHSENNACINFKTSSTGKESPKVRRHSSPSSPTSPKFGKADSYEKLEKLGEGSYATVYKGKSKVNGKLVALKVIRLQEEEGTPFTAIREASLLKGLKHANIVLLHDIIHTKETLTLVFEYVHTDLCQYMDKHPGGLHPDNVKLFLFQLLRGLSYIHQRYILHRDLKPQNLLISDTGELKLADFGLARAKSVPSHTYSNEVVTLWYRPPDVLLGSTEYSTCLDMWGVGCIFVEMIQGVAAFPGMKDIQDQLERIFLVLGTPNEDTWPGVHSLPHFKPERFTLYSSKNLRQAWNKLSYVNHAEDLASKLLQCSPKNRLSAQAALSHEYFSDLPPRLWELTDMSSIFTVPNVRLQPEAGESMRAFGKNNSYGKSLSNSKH

With `Cc1ccc(-c2ccc3c(ccc4sc5c(c43)NC[C@@H](C)NC5=O)n2)cn1`, the % of inhibition in test [1] is -11%.
Take `Cc1cc([C@@H](C)Nc2ccccc2C(=O)O)c2nc(N3CCOCC3)cc(=O)n2c1` [AZD-6482]: the values for the % of control in test [2] and in [3] were 100% and 87%, respectively.
`CN(C)C/C=C/C(=O)Nc1ccc(C(=O)N2CCCC(Nc3ncc(Cl)c(-c4c[nH]c5ccccc45)n3)C2)cc1` (stereo not given): the % of control in test [4] was found to be 91%; in [5], 89%.
In test [6], `Nc1cnc(N2CCc3cc(S(=O)(=O)Nc4c(F)cc(Cl)cc4F)cc(N4CCCC4=O)c32)nc1` [TP-020n] returned a % of control of 100%.
Consider `Cc1cc(F)c(C(=O)Nc2cccc(-c3nncn3C(C)C)n2)cc1-n1cnc(C2CC2)c1`, for which the % of control in test [7] was 100%.
For `Cc1cc(CN)cc(C)c1-c1ncn(C)c1-c1cncn1C`, the dTM on Peregrin (Homo sapiens) was -1.75 K.
In the case of `C=CC(=O)Nc1cc(-n2c(=O)ccc3cnc4ccc(-c5ccc(NS(C)(=O)=O)cc5)cc4c32)ccc1C`, the % of control in test [8] (at 1 µM) and in test [8] (at 10 µM) was 100% throughout.
With `Cc1cc(C)cc([C@H]2c3cc(C)ccc3NC(=O)CN2C(=O)c2ccc(Br)s2)c1`, the values for the % of activity in test [9] (at 1 µM) and in [9] (at 10 µM) were 102% and 97.3%, respectively.
As for `CNC(=O)Nc1ccc(-c2nc(N3CC4CCC(C3)O4)c3cnn(C4CCC5(CC4)OCCO5)c3n2)cc1`, the % of control in test [10] was determined as 81%. The % of inhibition in [11] amounted to 11%.
Turning to `CC[C@@H]1[C@H](F)C(=O)N[C@@H]1COc1nccc2cc(C(N)=O)c(OC)cc12` [ZIMLOVISERTIB], the % of inhibition in test [12] was -2.2%.
For the compound `CN(C(=O)c1cnn2cccnc12)c1cc2c(cc1N1CCOCC1)C(=O)N(C[C@@H](F)C(C)(C)O)C2`, the dTM on SRSF protein kinase 1 turned out to be 0.2 K; in test [13] it was 0.5 K.
For `COCC(=O)NC/C=C/c1ccc2ncnc(Nc3ccc(Oc4ccc(C)nc4)c(C)c3)c2c1` [CP-724714], the % of control amounted to 99% in [14], 90% in [15] and 100% in [16].
